Measurements from publication PMC8213057, “Targeting ALK2: An Open Science Approach to Developing Therapeutics for the Treatment of Diffuse Intrinsic Pontine Glioma” (Journal of Medicinal Chemistry, 2020).
Where two headings read alike, the source gives them in different places.

Columns and labels:
[1] = biological target: CYP3A4 (Homo sapiens, UniProt P08684); conditions: human liver microsomes
[2] = biological target: T1, GRK7 (Homo sapiens, UniProt Q8WTQ7); conditions: 1 μM; Run 1, Run 2
T1 sequence (Q8WTQ7 1-553): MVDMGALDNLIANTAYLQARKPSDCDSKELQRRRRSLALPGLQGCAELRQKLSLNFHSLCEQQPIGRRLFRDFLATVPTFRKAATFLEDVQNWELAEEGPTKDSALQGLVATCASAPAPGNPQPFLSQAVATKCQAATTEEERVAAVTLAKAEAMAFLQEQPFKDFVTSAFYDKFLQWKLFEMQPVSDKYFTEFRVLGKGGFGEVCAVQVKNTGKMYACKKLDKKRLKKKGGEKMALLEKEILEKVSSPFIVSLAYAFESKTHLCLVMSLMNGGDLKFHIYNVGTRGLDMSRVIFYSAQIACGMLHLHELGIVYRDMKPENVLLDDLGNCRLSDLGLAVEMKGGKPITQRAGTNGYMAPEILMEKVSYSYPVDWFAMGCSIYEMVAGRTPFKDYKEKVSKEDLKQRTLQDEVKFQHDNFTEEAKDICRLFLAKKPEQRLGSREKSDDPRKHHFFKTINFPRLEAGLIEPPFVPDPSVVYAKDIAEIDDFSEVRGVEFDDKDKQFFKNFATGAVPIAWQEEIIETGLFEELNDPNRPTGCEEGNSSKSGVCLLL

[3] = biological target: T2, TAOK3/JIK (Homo sapiens, UniProt Q9H2K8); conditions: 1 μM; Run 1, Run 2
T2 sequence (Q9H2K8 1-898): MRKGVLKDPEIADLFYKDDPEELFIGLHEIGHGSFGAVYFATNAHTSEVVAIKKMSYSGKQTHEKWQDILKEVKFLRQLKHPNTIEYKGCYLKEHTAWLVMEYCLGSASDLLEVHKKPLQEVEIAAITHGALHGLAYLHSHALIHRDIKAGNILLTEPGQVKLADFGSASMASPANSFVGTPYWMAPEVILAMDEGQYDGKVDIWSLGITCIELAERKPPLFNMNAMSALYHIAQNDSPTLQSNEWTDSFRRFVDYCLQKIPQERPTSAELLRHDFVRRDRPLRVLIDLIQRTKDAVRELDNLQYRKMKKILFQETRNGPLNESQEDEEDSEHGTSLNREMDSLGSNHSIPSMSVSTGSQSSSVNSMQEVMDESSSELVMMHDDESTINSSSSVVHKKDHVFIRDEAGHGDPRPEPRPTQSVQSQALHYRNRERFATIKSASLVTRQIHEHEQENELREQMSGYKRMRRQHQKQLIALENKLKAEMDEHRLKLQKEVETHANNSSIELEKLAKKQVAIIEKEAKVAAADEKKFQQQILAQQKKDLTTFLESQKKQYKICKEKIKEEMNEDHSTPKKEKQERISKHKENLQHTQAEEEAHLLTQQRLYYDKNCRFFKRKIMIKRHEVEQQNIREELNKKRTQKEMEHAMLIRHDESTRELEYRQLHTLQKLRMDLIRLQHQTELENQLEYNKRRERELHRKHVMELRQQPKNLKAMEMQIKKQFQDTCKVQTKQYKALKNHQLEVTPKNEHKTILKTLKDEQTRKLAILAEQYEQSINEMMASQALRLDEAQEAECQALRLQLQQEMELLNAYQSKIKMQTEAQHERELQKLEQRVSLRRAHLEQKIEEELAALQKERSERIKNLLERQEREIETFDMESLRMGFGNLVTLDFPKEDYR

[4] = biological target: AKT3 (Homo sapiens, UniProt Q9Y243); conditions: 1 μM; Run 1, Run 2
Sequence of AKT3 (Q9Y243 whole entry): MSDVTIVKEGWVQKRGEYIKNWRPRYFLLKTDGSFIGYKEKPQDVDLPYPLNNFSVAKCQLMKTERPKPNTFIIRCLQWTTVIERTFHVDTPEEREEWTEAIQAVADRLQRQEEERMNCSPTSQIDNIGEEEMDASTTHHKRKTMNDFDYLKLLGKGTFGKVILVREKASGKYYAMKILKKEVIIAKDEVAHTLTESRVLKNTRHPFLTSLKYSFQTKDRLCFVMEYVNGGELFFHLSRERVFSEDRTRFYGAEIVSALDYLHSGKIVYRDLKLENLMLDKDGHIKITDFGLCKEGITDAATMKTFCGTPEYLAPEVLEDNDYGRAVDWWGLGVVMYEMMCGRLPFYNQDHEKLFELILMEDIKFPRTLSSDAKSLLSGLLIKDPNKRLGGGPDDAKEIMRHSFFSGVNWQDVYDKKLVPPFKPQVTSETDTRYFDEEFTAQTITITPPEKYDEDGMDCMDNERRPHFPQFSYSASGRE

[5] = biological target: T3, KHS/MAP4K5 (Homo sapiens, UniProt Q9Y4K4); test: 375-member kinase panel; type: biochemical; conditions: Run 1, Run 2; for % enzyme activity: 1 μM; for remaining activity at 1 µM: read-out: % enzyme activity, 1 μM
T3 construct: purchased Reaction Biology Corporation
T3 sequence (Q9Y4K4 whole entry): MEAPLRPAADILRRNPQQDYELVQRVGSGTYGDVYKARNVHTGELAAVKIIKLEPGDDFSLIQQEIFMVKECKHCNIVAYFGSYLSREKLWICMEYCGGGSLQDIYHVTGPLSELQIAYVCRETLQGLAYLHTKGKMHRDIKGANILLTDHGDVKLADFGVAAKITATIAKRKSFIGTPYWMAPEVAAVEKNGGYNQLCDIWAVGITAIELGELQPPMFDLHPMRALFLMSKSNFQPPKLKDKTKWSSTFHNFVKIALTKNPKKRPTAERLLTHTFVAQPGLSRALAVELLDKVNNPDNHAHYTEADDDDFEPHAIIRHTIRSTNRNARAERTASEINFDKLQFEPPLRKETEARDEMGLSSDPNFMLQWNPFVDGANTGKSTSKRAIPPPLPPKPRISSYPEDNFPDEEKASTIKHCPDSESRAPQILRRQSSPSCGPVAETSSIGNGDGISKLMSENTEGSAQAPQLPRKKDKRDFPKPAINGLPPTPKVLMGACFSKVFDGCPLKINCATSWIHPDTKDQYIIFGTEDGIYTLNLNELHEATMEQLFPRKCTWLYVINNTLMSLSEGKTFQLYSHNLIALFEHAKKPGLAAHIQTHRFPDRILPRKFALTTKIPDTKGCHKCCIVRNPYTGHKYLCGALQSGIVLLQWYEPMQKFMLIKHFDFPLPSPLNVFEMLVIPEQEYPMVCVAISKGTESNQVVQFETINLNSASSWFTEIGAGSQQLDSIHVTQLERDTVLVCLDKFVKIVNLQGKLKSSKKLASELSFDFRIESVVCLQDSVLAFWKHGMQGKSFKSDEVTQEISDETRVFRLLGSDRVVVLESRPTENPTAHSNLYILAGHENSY

[6] = biological target: MRCKa/CDC42BPA (Homo sapiens, UniProt Q5VT25); conditions: 1 μM; Run 1, Run 2
Sequence of MRCKa/CDC42BPA (Q5VT25 whole entry): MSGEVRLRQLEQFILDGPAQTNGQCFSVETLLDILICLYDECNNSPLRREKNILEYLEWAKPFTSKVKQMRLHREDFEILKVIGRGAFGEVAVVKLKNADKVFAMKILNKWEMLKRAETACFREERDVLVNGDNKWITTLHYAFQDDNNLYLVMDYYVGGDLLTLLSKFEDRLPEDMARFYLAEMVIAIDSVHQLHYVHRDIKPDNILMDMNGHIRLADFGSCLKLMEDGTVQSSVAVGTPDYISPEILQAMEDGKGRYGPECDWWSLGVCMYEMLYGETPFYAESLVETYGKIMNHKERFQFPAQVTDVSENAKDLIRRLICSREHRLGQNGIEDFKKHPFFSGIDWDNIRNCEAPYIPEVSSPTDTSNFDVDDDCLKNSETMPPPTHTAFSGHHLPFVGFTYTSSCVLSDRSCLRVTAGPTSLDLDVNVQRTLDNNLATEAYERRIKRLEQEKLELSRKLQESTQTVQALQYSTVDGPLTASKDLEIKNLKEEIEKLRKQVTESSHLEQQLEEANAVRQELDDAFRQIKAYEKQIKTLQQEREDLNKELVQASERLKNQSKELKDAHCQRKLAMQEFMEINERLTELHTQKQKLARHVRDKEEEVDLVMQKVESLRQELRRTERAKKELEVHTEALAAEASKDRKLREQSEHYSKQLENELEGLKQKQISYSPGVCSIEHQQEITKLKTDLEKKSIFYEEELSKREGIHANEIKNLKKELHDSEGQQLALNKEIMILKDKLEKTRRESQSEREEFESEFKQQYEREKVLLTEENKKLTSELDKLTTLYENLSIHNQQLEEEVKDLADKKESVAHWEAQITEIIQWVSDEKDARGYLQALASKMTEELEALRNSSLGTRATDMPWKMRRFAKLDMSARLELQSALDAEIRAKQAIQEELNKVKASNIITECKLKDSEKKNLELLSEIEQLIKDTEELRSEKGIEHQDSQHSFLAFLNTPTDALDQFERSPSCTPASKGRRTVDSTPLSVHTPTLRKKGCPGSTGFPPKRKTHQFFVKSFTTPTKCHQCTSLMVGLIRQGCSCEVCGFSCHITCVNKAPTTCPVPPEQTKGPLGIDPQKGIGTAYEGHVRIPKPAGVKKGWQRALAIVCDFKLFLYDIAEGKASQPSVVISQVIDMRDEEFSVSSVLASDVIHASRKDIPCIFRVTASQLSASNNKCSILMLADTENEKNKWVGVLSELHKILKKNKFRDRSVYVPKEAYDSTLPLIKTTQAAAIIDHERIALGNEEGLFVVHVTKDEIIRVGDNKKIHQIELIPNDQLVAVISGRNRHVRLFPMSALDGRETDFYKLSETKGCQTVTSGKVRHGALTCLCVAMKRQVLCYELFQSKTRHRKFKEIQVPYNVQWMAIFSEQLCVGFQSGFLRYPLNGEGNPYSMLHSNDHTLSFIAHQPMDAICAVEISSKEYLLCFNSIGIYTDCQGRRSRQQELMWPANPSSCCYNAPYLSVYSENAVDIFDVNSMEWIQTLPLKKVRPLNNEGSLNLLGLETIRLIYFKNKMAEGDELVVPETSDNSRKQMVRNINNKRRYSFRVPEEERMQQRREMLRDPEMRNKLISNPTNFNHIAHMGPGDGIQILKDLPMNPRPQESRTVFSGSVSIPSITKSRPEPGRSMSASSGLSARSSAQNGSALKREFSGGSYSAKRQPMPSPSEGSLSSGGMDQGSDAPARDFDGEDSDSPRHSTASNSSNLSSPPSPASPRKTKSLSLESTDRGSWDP

[7] = biological target: NEK4 (Homo sapiens, UniProt P51957); test: biochemical; conditions: read-out: % enzyme activity, 1 μM; Run 1, Run 2
Sequence of NEK4 (P51957 whole entry): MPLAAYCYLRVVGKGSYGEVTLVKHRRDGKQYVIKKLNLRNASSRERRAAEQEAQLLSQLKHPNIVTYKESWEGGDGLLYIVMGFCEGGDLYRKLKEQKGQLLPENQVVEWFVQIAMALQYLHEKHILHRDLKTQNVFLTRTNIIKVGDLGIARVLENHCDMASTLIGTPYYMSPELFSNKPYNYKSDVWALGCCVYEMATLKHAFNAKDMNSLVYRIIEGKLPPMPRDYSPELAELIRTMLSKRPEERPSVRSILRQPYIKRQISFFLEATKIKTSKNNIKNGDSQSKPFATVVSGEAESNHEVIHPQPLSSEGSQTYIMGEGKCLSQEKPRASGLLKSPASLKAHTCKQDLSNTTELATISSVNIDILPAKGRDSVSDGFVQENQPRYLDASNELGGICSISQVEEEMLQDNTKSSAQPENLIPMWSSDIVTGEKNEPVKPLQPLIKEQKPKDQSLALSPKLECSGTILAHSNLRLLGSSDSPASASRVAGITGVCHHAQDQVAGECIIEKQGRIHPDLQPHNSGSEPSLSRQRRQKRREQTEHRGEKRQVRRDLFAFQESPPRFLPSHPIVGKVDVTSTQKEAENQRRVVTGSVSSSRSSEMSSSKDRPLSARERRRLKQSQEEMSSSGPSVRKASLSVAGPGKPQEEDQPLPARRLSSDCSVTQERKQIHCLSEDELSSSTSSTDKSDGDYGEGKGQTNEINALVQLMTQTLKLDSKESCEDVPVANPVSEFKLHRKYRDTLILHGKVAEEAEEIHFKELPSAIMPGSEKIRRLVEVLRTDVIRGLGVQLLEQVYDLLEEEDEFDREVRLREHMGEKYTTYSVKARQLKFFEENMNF

[8] = biological target: p70S6K/RPS6KB1 (Homo sapiens, UniProt P23443); test: biochemical; conditions: read-out: % enzyme activity, 1 μM; Run 1, Run 2
Sequence of p70S6K/RPS6KB1 (P23443 whole entry): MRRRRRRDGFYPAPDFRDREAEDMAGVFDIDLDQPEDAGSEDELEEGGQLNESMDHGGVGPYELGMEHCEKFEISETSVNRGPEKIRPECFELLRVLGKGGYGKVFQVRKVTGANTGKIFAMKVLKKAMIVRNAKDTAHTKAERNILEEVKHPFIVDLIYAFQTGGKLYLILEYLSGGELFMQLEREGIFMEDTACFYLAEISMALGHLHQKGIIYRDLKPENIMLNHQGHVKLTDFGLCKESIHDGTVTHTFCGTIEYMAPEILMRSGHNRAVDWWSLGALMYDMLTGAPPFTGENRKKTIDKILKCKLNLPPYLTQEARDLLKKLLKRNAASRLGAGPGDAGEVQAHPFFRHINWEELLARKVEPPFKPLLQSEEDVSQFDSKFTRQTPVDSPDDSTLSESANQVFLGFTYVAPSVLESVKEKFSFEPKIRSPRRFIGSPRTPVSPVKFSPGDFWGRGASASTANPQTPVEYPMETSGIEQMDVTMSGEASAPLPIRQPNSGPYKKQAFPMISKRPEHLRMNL

[9] = biological target: T4, EPHB3 (Homo sapiens, UniProt P54753); test: biochemical; conditions: read-out: % enzyme activity, 1 μM; Run 1, Run 2
T4 sequence (P54753 34-998): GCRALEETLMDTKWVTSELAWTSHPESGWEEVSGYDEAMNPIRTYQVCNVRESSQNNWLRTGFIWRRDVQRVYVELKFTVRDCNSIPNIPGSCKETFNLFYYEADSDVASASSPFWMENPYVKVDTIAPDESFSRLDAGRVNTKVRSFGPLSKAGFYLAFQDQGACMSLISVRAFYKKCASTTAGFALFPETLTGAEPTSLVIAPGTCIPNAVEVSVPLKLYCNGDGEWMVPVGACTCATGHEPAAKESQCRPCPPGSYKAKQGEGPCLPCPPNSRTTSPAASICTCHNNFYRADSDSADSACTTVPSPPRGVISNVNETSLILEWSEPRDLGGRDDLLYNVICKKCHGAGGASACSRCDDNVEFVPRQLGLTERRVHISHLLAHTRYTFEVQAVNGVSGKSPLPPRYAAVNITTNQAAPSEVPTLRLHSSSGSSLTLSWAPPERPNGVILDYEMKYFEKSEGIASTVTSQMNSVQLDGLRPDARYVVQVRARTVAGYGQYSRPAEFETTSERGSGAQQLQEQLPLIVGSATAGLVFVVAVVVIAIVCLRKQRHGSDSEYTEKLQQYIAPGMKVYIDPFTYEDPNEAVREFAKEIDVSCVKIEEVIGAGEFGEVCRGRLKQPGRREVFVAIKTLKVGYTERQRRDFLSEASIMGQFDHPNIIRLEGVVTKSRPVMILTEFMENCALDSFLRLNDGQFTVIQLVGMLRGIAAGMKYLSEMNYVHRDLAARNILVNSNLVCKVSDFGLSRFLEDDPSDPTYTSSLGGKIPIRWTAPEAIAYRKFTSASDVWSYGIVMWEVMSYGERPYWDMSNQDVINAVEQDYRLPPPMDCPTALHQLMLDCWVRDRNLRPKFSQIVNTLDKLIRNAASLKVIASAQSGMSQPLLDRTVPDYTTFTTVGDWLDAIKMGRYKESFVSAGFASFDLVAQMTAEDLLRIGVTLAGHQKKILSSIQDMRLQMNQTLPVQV

[10] = read-out: CYP3A4-Midazolam IC50, substrate midazolam
[11] = read-out: CYP3A4-Testosterone IC50, substrate testosterone

Sequence of CYP3A4 (P08684 whole entry): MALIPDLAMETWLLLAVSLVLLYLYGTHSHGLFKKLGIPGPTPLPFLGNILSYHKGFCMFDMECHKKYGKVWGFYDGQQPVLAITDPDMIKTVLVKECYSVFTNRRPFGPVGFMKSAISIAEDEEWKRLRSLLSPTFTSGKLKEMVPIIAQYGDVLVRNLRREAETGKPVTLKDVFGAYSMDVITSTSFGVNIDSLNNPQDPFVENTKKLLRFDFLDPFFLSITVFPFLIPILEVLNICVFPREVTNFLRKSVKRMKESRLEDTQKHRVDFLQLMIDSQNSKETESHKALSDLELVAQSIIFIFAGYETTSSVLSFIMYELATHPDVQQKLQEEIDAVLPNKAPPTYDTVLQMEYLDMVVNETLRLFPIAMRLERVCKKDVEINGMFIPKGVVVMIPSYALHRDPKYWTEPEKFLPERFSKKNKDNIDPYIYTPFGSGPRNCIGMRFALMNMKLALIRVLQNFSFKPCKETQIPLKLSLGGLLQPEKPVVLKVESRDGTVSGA

Structure (SMILES)	IC50 [1, 10]	IC50 [1, 11]	% enzyme activity [2]	% enzyme activity [3]	% enzyme activity [4]	% enzyme activity [5]	remaining activity at 1 µM [5]	% enzyme activity [6]	remaining activity at 1 µM [7]	remaining activity at 1 µM [8]	remaining activity at 1 µM [9]
COc1cc(-c2cncc(-c3ccc(N4CCN(C)CC4)cc3)c2C)cc(F)c1C(N)=O [Compound 26a, 2-Fluoro-6-methoxy-4-(4-methyl-5-(4-(4-methylpiperazin-1-yl)phenyl)pyridin-3-yl)benzamide]	> 50 µM	> 50 µM	93.81%	69.26%	94.73%	39.28%	39.7%	102.07%	98.5%	97.8%	95.5%
COc1cc(-c2cncc(-c3ccc(N4C[C@@H](C)N(C)[C@@H](C)C4)cc3)c2C)cc(F)c1C(N)=O [Compound 26c, 2-Fluoro-6-methoxy-4-(4-methyl-5-(4-((3R,5S)-3,4,5-trimethylpiperazin-1-yl)phenyl)pyridin-3-yl)benzamide]	> 50 µM	> 50 µM	91.35%	81.51%	98.56%	40.60%	41.7%	104.72%	98%	100%	98.9%
